Results taken from PubChem BioAssay AID2198 (Vanderbilt High Throughput Screening Facility, 2009).
Activity calls are given as the source filed them.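 The calls were made as follows: active = mean EC50 under 30 µM; inactive = the rest.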

target: Muscarinic acetylcholine receptor M5 (Homo sapiens) (UniProt P08912); test: potentiation of ACh EC20 at hM5 – cell-based, calcium, SAR follow-up (AID 2198); details: CHO-K1 hM5, Fluo-4 calcium
Sequence (P08912 whole entry, looked up): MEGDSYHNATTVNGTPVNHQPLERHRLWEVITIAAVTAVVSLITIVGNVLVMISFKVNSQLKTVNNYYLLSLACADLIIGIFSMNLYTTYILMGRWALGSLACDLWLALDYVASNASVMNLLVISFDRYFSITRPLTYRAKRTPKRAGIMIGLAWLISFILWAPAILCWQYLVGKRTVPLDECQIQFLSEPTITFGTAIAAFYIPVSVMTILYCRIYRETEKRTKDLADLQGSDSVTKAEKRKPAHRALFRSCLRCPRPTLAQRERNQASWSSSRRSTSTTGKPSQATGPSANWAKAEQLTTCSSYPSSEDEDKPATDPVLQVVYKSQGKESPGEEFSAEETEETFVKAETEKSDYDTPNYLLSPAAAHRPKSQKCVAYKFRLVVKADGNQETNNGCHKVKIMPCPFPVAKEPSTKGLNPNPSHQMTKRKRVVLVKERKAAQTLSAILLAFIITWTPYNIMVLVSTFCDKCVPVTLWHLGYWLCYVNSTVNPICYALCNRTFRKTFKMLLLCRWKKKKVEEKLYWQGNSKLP

SMILES	EC50
COc1cccc(CN2C(=O)C(=O)c3cc(OC(F)(F)F)ccc32)c1	1.7 µM
O=C1C(=O)N(Cc2ccc(C(F)(F)F)cc2)c2c(F)cccc21	3.26 µM
COc1ccc(CN2C(=O)C(=O)c3cccc(Cl)c32)cc1	3.96 µM
O=C1C(=O)N(Cc2ccc(C(F)(F)F)cc2)c2ccccc21	3.19 µM
O=C1C(=O)N(Cc2ccc(Br)cc2F)c2ccc(OC(F)(F)F)cc21	> 30 µM (inactive)
O=C1C(=O)N(Cc2ccc(C(F)(F)F)cc2)c2ccc(OC(F)(F)F)cc21	1.85 µM
COc1ccc(CN2C(=O)C(=O)c3ccccc32)cc1	> 30 µM (inactive)
O=C1C(=O)N(Cc2ccc(C(F)(F)F)cc2)c2ccc(Cl)cc21	3.3 µM
O=C1C(=O)N(Cc2ccccc2C(F)(F)F)c2c(F)cccc21	> 30 µM (inactive)
O=C1C(=O)N(Cc2ccc(Br)cc2)c2c(F)cccc21	1.93 µM
O=C1C(=O)N(Cc2ccccc2C(F)(F)F)c2ccc(F)cc21	> 30 µM (inactive)
O=C1C(=O)N(Cc2ccc(OC(F)(F)F)cc2)c2ccc(OC(F)(F)F)cc21	1.86 µM
COc1ccc(CN2C(=O)C(=O)c3cc(OC(F)(F)F)ccc32)cc1	1.16 µM
COc1cccc(CN2C(=O)C(=O)c3c(Cl)ccc(Cl)c32)c1	7.15 µM
O=C1C(=O)N(Cc2ccccc2Cl)c2ccc(OC(F)(F)F)cc21	4.07 µM
Cc1ccccc1CN1C(=O)C(=O)c2cc(OC(F)(F)F)ccc21	3.28 µM
O=C1C(=O)N(Cc2ccc(Br)cc2F)c2c(Cl)cccc21	4.66 µM
